Values of other authors as cited in patent US20210361677A1, “DOSING METHODS FOR TREATING INFLAMMATORY BOWEL CONDITIONS” (priority 2020, published 2021).

Details: enema by prior methods, two patients, FIG. 1

systemic (plasma) levels of 5-ASA after bowel movements: dramatically lower
Compound: Nc1ccc(O)c(C(=O)O)c1 [5-ASA, 5-aminosalicylic acid]
